Results from ChEMBL document CHEMBL1151559, “Pyridine and piperidine derivatives as inhibitors of dihydrodipicolinic acid synthase, a key enzyme in the diaminopimelate pathway to l-lysine” (Bioorg Med Chem Lett, 1994).
Where “and” joins values, the source holds several entries; their conditions need not be identical. Equal entries are not always repeated.

Experiments:
[1] = molecular target: T1, Dihydrodipicolinate synthase (Streptomyces coelicolor (strain ATCC BAA-471 / A3(2) / M145), UniProt Q93RY0); assay: In vitro inhibition of dihydrodipicolinic acid synthase.; format: functional, Escherichia coli
T1 sequence (Q93RY0 whole entry): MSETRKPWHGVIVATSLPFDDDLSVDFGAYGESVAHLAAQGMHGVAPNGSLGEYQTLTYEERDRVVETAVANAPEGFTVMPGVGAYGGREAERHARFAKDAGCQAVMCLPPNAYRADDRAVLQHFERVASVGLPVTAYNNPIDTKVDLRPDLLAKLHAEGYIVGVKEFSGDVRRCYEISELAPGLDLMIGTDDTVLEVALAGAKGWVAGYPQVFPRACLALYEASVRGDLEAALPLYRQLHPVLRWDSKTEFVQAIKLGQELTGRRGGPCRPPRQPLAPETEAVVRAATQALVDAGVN

[2] = molecular target: T1, Dihydrodipicolinate synthase (Streptomyces coelicolor (strain ATCC BAA-471 / A3(2) / M145), UniProt Q93RY0); assay: Inhibitory activity against dihydrodipicolinic acid synthase; format: functional, Escherichia coli

Compound | IC50 [1] | Ki [2] [µM]
O=C(O)c1cccc[n+]1[O-] | 800 µM | 
N#Cc1cccc(C#N)n1 | 300 µM | 
O=NN1CCCCC1C(=O)O (stereo not drawn) | 3500 µM | 
COC(=O)[C@H]1CCC[C@@H](C(=O)OC)N1N=O | 6200 µM and 700 µM | 
c1cc(-c2nnn[nH]2)nc(-c2nnn[nH]2)c1 | 250 µM | 
O=NN1CCCC1C(=O)O (stereo not drawn) | 7500 µM | 
O=C(O)c1ccccn1 [2-PICOLINIC ACID] | 1000 µM | 
O=C(O)c1cccc(C(=O)O)n1 [DIPICOLINIC ACID] | 400 µM | 
O=NN1[C@@H](C(=O)O)CCC[C@H]1C(=O)O | 2300 µM | 
O=C(O)c1cccc(C(=O)O)[n+]1[O-] | 200 µM | 

Now from value to compound:

IC50 [1] | Ki [2] [µM] | Compound
 | 6300 | N#C[C@@H]1CCC[C@@H](C#N)N1
7200 µM |  | N=C[C@@H]1CCC[C@H](C=N)N1
700 µM |  | COC(=O)[C@@H]1CCC[C@@H](C(=O)OC)N1C
7400 µM |  | N#C[C@@H]1CCC[C@H](C#N)N1
200 µM |  | COC(=N)c1cccc(C(=N)OC)n1
700 µM |  | COC(=O)[C@@H]1CCC[C@H](C(=O)OC)N1
5200 µM |  | COC(=O)[C@@H]1CCC[C@@H](C(=O)OC)N1
700 µM |  | COC(=O)c1cccc(C(=O)OC)n1
